These results are taken from publication PMC7865627, “Small Molecule-Based Prodrug Targeting Prostate Specific Membrane Antigen for the Treatment of Prostate Cancer” (Cancers, 2021).

A short description of data set [1]: Stability on incubation in PBS (without cathepsin), HPLC. Type of data set: in vitro ADME. The note with it: incubation with PBS without cathepsin, triplicate. As for the experimental part: Cathepsin is a prevalent protease that PSMA internalized ligands will encounter as they enter into late endosomes/lysosomes. To investigate if PSMA-targeted drug conjugates were cleavable by cathepsin B, the two conjugates were incubated with or without cathepsin protease and chromatographed by high performance liquid chromatography (HPLC).
At different time intervals, 40 μL of the solution was taken out into tubes loaded with 1 μL of 1 mM E64 protease inhibitor. […] Studies were performed in triplicate.

A short description of data set [2]: In vitro cytotoxicity assay (CCK-8), PC3flu. To be noted: human, PC3flu cells. Type of data set: cell-based, human. How it is done: Cells (1000/well) were seeded in 96-well culture plates the day before treatment.
The next data set deals with heterotopic C4-2 tumors. The data set is described as follows: Heterotopic C4-2 tumor study. The data set is classed as in vivo, mouse. To be noted: 1910 nmol/kg every 4 days, five doses, 7 animals. The source says:
To show versatility of the antitumor activity of PSMA-1-VcMMAE, we also tested it in mice bearing heterotopic C4-2 tumors, which are androgen-independent prostate cancer cells endogenously expressing PSMA. […]
drugs through tail vein inject every 4 days with total of 5 injections as indicated by the red arrows.
[…] Values are mean ± SD of 5 animals. The plots stopped when animals died during the experiments since values are represent as mean ± SD of 5 animals.
(nmol/kg) Tumor Growth (nmol/kg) Therapeutic Index *
*: Therapeutic index is defined by MTD/effective dose.
PC3flu tumors. Treatment were scheduled every 4 days with a total of five doses as indicated by the […]
red arrow. […] For tumor growth curves and body weight curves, values are mean ± SD of 5 animals. The plots stopped when animals died during the experiments since values are represent as mean ± SD of 5 animals. (A) Tumor growth curves of mice treated with 955 nmol/kg of PSMA-1-VcMMAE. (B) Comparison of the potency of PSMA-1-VcMMAE to treat PC3pip (solid line) and PC3flu tumors (dashed line) at the dose of 955 nmol/kg. (☀, PC3pip treated versus PC3pip PBS, p = 0.0005; ★, PC3pip treated versus PC3flu PBS, p = 0.0242; ♣, PC3pip treated versus PC3flu treated, p = 0.0493). (C) Body weight changes of mice treated with 955 nmol/kg of PSMA-1-VcMMAE.
Figure 9. PSMA-1-VcMMAE was effective in heterotopic C4-2 tumor model. […]

Read-outs that look alike come from different tables or passages of the source. *1 amine or outer side, *2 acyl side, *3 side chain or, on linkers, in order; H or OH if unused. Where a SMILES comes first, the peptide text is derived from it. Bridges are numbered along the chain shown (N, C = ends). Roman numbers before positions name the chains, in order. [ ]: non-standard residue; d: D form. The star is where a group is joined. Hexanoyl(6-succinimido-3yl) = O=C1CC([*:1])C(=O)N1CCCCCC(=O)[*:2]; Dolaproine = CO[C@@H]([C@@H]1CCCN1)[C@@H](C)C(=O)O; Dil = CC[C@H](C)[C@H](NC)[C@@H](CC(=O)O)OC; γGlu = O=C(O)[C@H](CCC(=O)[*:2])N[*:1]; PABC = O=C(OCc1ccc(N[*:1])cc1)[*:2]; X2 = C[C@@H](N*)[C@@H](O)c1ccccc1; X1 = O=C(C1CCC(CN[*:1])CC1)[*:2]; Cit = NC(=O)NCCC[C@H](N)C(=O)O; NMeV = CN[C@H](C(=O)O)C(C)C; CO = O=C([*:1])[*:2]; Ahx = NCCCCCC(=O)O

In the case of `CC[C@H](C)[C@@H]([C@@H](CC(=O)N1CCC[C@H]1[C@H](OC)[C@@H](C)C(=O)N[C@H](C)[C@@H](O)c1ccccc1)OC)N(C)C(=O)[C@@H](NC(=O)[C@H](C(C)C)N(C)C(=O)OCc1ccc(NC(=O)[C@H](CCCNC(N)=O)NC(=O)[C@@H](NC(=O)CCCCCN2C(=O)CC(SC[C@H](NC(=O)[C@@H](CCC(=O)O)NC(=O)[C@@H](CCC(=O)O)NC(=O)[C@@H](CCC(=O)O)NC(=O)CCCCCNC(=O)C3CCC(CNC(=O)CC[C@H](NC(=O)N[C@@H](CCC(=O)O)C(=O)O)C(=O)O)CC3)C(=O)NCCCCCC(=O)N[C@@H](CCCCN)C(N)=O)C2=O)C(C)C)cc1)C(C)C` (some centres unmarked) [PSMA-1-VcMMAE] (I: {Glu-CO-γGlu}-[X1][Ahx][dE][dE][dE]C[Ahx]K-NH2 / II: V[Cit][PABC][NMeV]V[Dil][Dolaproine]-X2; linker I:6-II:N via Hexanoyl(6-succinimido-3yl)), in data set [1], the “stability in PBS (in words)” value is “stable”. The EC50 (commonly the concentration that produces a half-maximal response) at 72 h in data set [2] (72 h, CCK-8, in the presence of 10 μM of PSMA-1, read-out: EC50, cytotoxicity to PC3flu cells + PSMA-1) worked out at 261 ± 5.6 nM; in data set [2] (72 h, CCK-8, in the presence of protease inhibitor E64 (50 μM given for the Cy5.5 conjugates), read-out: EC50, cytotoxicity to PC3flu cells + E64), 385 ± 5.3 nM; in data set [2] (72 h incubation, CCK-8, mean ± SD, read-out: EC50, cytotoxicity to PC3flu cells), 222 ± 2.8 nM. For the same compound, the “cures, C4-2 tumors” value with heterotopic C4-2 tumors is on record as 2 / 7.
